Several values for one entry are separate records, joined by “and”; a condition that tells them apart may be missing. Identical values can stand only once. Entries after “also recorded” stand apart in the source; their conditions may differ.
Tests used:
[1] = system: Sprague Dawley strain male rats; test: Behaviour and righting reflex after ethanol, UDPGA.3Na given 30 minutes after ethanol; type: in vivo; details: 160 mg/kg oral 30 min after ethanol 6 g/kg
Method: The Sprague Dawley strain male rats weighing 160±30 g which were fed rat food commercially available as CLEA CE-2 and prevented from eating food for 12 hours just before the experiment was started. Each rat was administered with ethanol as a 50% aqueous solution in a dose of 6 g/kg.body weight. Thirty minutes after the administration, the rat was orally administered with a suspension of trisodium uridine-5'-diphosphate glucuronic acid (UDPGA.3Na) in corn oil in a dose of 160 mg/kg.body weight based on UDPGA.3Na. The behavior of the rat was observed over 24 hours after the last administration.

neutral lipid in liver = test: Inhibiting action for accumulation of neutral lipid in liver (ethanol-treated rats; Van Handel and Zilver-Smit method); type: in vivo, Sprague Dawley strain male rats; details: 160 mg/kg oral in corn oil, 30 min before ethanol 6 g/kg oral; liver taken 24 hours after
Method: Inhibiting Action for Accumulation of Neutral Lipid in Liver […] Each rat was orally administered with trisodium uridine-5'-diphosphate glucuronic acid (UDPGA-3.Na) as a suspension in corn oil in a dose of 160 mg/kg.body weight. Thirty minutes after the administration, each rat was orally administered with ethanol as a 50% aqueous solution in a dose of 6 g/kg.body weight and, 24 hours after the administration, the liver was taken out and an amount of neutral lipid contained therein was determined by the Van Handel and Zilver-Smit method. For control, a glucose aqueous solution having a caloric content equivalent to the same amount of ethanol was used instead of ethanol.

[2] = system: Sprague Dawley strain male rats; test: Behaviour and righting reflex after ethanol, UDPGA.3Na given 30 minutes before ethanol; type: in vivo; details: 160 mg/kg oral 30 min before ethanol 6 g/kg
Method: The Sprague Dawley strain male rats weighing 260±30 g which had been fed rat food commerically available as CLEA CE-2 and prevented from eating food for 12 hours just before the experiment were divided into groups each of 10-13 members each. Each rat was orally administered trisodium uridine-5'-diphosphate glucuronic acid (UDPGA.3Na) in the form of a suspension in corn oil in an amount 160 mg/kg.body weight. Thirty minutes after the administration, ethanol as a 50% aqueous solution was orally administered in a dose of 6 g/kg.body weight and then behavior of the rat was observed over 24 hours.

alcohol level in blood = test: Measurement of alcohol level in blood (alcoholic dehydrogenase method) and behavior; type: in vivo, Sprague Dawley strain female rats; details: 30 min before ethanol 6 g/kg
Method: Measurement of Alcohol Level in Blood
In this Example, Sprague Dawley strain female rats (weighing 150±20 g) divided into groups of 9-12 members each were used.
After abstention from food overnight each rat was orally administered trisodium uridine-5'-diphosphate glucuronic acid (UDPGA.3Na) in the form of a physiological saline solution in a dose of 160 mg/kg.body weight as an effective ingredient and, 30 minutes after the administration, the rat was administered with ethanol in a dose of 6 g/kg body weight. Four hours and thirty minutes after the administration of ethanol, the rat was etherized, and blood was sampled from its heart to determine alcohol level in the blood by a alcoholic dehydrogenase method. For control, a physiological saline solution was used instead of the UDPGA.3Na solution.

O=C(O)[C@H]1O[C@H](OP(=O)(O)OP(=O)(O)OC[C@H]2O[C@@H](n3ccc(=O)[nH]c3=O)[C@H](O)[C@@H]2O)[C@H](O)[C@@H](O)[C@@H]1O [UDPGA.3Na, trisodium uridine-5'-diphosphate glucuronic acid]
Behaviour: Deep Sleep ([1]; 3 hrs. after alcohol): 2 heads | Behaviour: Lying Flat ([1]; 3 hrs. after alcohol): 5 heads | Behaviour: Normal Walking ([1]; 3 hrs. after alcohol): 3 heads | Righting Reflex + ([1]; 3 hrs. after alcohol): 7 heads | Righting Reflex - ([1]; 3 hrs. after alcohol): 3 heads | Behaviour: Deep Sleep ([1]; 6 hrs. after alcohol): 2 heads | Behaviour: Lying Flat ([1]; 6 hrs. after alcohol): 6 heads | Behaviour: Normal Walking ([1]; 6 hrs. after alcohol): 2 heads | Righting Reflex + ([1]; 6 hrs. after alcohol): 7 heads | Righting Reflex - ([1]; 6 hrs. after alcohol): 3 heads | Behaviour: Deep Sleep ([1]; 9 hrs. after alcohol): 1 heads | Behaviour: Lying Flat ([1]; 9 hrs. after alcohol): 3 heads | Behaviour: Normal Walking ([1]; 9 hrs. after alcohol): 6 heads | Righting Reflex + ([1]; 9 hrs. after alcohol): 8 heads | Righting Reflex - ([1]; 9 hrs. after alcohol): 2 heads | Behaviour: Deep Sleep ([1]; 12 hrs. after alcohol): 0 heads | Behaviour: Lying Flat ([1]; 12 hrs. after alcohol): 2 heads | Behaviour: Normal Walking ([1]; 12 hrs. after alcohol): 8 heads | Righting Reflex + ([1]; 12 hrs. after alcohol): 10 heads | Righting Reflex - ([1]; 12 hrs. after alcohol): 0 heads | Behaviour: Deep Sleep ([1]; 18 hrs. after alcohol): 0 heads | Behaviour: Lying Flat ([1]; 18 hrs. after alcohol): 0 heads | Behaviour: Normal Walking ([1]; 18 hrs. after alcohol): 10 heads | Righting Reflex + ([1]; 18 hrs. after alcohol): 10 heads | Righting Reflex - ([1]; 18 hrs. after alcohol): 0 heads | % inhibition (neutral lipid in liver) (neutral lipid in liver): 59.7% | Neutral Lipid in Liver (neutral lipid in liver): 23.05 ± 10.72 mg/g | Behaviour: Deep Sleep ([2]; 3 hrs. after alcohol): 2 heads | Behaviour: Lying Flat ([2]; 3 hrs. after alcohol): 4 heads | Behaviour: Normal Walking ([2]; 3 hrs. after alcohol): 4 heads | Righting Reflex + ([2]; 3 hrs. after alcohol): 7 heads | Righting Reflex - ([2]; 3 hrs. after alcohol): 3 heads | Behaviour: Deep Sleep ([2]; 6 hrs. after alcohol): 2 heads | Behaviour: Lying Flat ([2]; 6 hrs. after alcohol): 6 heads | Behaviour: Normal Walking ([2]; 6 hrs. after alcohol): 2 heads | Righting Reflex + ([2]; 6 hrs. after alcohol): 7 heads | Righting Reflex - ([2]; 6 hrs. after alcohol): 3 heads | Behaviour: Deep Sleep ([2]; 9 hrs. after alcohol): 1 heads | Behaviour: Lying Flat ([2]; 9 hrs. after alcohol): 6 heads | Behaviour: Normal Walking ([2]; 9 hrs. after alcohol): 3 heads | Righting Reflex + ([2]; 9 hrs. after alcohol): 9 heads | Righting Reflex - ([2]; 9 hrs. after alcohol): 1 heads | Behaviour: Deep Sleep ([2]; 12 hrs. after alcohol): 0 heads | Behaviour: Lying Flat ([2]; 12 hrs. after alcohol): 0 heads | Behaviour: Normal Walking ([2]; 12 hrs. after alcohol): 10 heads | Righting Reflex + ([2]; 12 hrs. after alcohol): 10 heads | Righting Reflex - ([2]; 12 hrs. after alcohol): 0 heads | Behaviour: Deep Sleep ([2]; 18 hrs. after alcohol): 0 heads | Behaviour: Lying Flat ([2]; 18 hrs. after alcohol): 0 heads | Behaviour: Normal Walking ([2]; 18 hrs. after alcohol): 10 heads | Righting Reflex + ([2]; 18 hrs. after alcohol): 10 heads | Righting Reflex - ([2]; 18 hrs. after alcohol): 0 heads | Ethanol level in Blood, Average (alcohol level in blood; 160 mg/kg oral in physiological saline, blood 4 h 30 min after ethanol, Confidence Limits: 98%): 1.59 ± 0.93 mg/mL | Ethanol level in Blood (individual test animals) (alcohol level in blood; 160 mg/kg oral in physiological saline, blood 4 h 30 min after ethanol, test animals 1-12 in block order): 2.21 mg/mL and 1.65 mg/mL and 1.82 mg/mL and 1.41 mg/mL and 1.19 mg/mL and 2.15 mg/mL and 0.85 mg/mL and 0.37 mg/mL and 0.63 mg/mL and 1.79 mg/mL and 2.19 mg/mL and 2.82 mg/mL | Behavior (individual test animals) (alcohol level in blood; 160 mg/kg oral in physiological saline, test animals 1-12 in block order): lying flat; also recorded: normal walking; also recorded: deep sleep | alcohol level in blood in comparison with the control (alcohol level in blood; 160 mg/kg oral, blood 4 h 30 min after ethanol): significantly lowered

Source: patent US4027017A, “Method of treating alcoholism” (Chugai Seiyaku Kabushiki Kaisha, priority 1974, dated 1977)
